# Measurements: ChEMBL document CHEMBL5465560, “Selectivity Literature for EUbOPEN Chemogenomic Library” (2024)
# Experiments:
# [1] = target: Transcription intermediary factor 1-beta (Homo sapiens) (UniProt Q13263); test: Selectivity interaction (Human bromodomain panel (DSF assay)) EUB0000233b TRIM28
# [2] = target: Mitogen-activated protein kinase 6 (Homo sapiens) (UniProt Q16659); test: Selectivity interaction (KinomeScan (DiscoverX)) EUB0000607a MAPK6; settings: at 10 µM
# [3] = target: T1, Dual specificity tyrosine-phosphorylation-regulated kinase 4 (Homo sapiens) (UniProt Q9NR20); test: Selectivity interaction (Kinase panel (Invitrogen)) EUB0000639a DYRK4; settings: at 200 nM
# T1 sequence (whole entry): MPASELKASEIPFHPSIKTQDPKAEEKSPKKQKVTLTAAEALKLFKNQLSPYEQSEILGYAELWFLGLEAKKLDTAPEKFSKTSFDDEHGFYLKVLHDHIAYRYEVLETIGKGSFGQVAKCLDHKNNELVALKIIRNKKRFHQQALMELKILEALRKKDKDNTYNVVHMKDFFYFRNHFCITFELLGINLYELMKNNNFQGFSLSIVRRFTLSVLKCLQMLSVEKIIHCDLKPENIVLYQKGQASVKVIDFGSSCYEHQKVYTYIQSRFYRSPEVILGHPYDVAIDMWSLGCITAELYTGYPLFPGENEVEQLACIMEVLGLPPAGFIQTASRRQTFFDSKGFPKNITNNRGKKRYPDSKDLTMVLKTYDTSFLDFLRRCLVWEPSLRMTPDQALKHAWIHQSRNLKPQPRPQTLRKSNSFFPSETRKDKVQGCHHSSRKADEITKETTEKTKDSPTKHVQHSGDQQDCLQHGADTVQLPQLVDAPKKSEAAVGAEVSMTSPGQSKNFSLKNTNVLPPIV
# [4] = target: Sodium-dependent noradrenaline transporter (Homo sapiens, UniProt P23975); test: Selectivity interaction (Panel of non-epigenetic targets (kinases, GPCRs, ion channels, and transporters, Eurofins) ) EUB0000271b SLC6A2; settings: at 1 µM
# [5] = target: Angiopoietin-1 receptor (Homo sapiens) (UniProt Q02763); test: Selectivity interaction (KinomeScan (DiscoverX)) EUB0000695a TEK; settings: at 100 nM
# [6] = target: Mitogen-activated protein kinase kinase kinase kinase 1 (Homo sapiens) (UniProt Q92918); test: Selectivity interaction (KinomeScan (DiscoverX)) EUB0000595a MAP4K1; settings: at 10 µM
# [7] = target: T2, Aurora kinase C (Homo sapiens) (UniProt Q9UQB9); test: Selectivity interaction (KinomeScan (DiscoverX)) EUB0001049a AURKC; settings: at 1 µM
# T2 sequence (whole entry): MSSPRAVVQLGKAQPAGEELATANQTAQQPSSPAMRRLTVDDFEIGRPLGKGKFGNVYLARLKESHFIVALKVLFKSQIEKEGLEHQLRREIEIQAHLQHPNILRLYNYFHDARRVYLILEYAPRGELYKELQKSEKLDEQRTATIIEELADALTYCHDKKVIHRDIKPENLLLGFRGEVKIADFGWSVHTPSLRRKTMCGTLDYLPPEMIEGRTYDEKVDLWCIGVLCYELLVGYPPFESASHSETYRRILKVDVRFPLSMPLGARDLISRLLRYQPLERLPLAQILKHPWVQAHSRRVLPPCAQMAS
# [8] = target: T3, Mitogen-activated protein kinase kinase kinase 15 (Homo sapiens) (UniProt Q6ZN16); settings: at 10 µM
# T3 sequence (whole entry): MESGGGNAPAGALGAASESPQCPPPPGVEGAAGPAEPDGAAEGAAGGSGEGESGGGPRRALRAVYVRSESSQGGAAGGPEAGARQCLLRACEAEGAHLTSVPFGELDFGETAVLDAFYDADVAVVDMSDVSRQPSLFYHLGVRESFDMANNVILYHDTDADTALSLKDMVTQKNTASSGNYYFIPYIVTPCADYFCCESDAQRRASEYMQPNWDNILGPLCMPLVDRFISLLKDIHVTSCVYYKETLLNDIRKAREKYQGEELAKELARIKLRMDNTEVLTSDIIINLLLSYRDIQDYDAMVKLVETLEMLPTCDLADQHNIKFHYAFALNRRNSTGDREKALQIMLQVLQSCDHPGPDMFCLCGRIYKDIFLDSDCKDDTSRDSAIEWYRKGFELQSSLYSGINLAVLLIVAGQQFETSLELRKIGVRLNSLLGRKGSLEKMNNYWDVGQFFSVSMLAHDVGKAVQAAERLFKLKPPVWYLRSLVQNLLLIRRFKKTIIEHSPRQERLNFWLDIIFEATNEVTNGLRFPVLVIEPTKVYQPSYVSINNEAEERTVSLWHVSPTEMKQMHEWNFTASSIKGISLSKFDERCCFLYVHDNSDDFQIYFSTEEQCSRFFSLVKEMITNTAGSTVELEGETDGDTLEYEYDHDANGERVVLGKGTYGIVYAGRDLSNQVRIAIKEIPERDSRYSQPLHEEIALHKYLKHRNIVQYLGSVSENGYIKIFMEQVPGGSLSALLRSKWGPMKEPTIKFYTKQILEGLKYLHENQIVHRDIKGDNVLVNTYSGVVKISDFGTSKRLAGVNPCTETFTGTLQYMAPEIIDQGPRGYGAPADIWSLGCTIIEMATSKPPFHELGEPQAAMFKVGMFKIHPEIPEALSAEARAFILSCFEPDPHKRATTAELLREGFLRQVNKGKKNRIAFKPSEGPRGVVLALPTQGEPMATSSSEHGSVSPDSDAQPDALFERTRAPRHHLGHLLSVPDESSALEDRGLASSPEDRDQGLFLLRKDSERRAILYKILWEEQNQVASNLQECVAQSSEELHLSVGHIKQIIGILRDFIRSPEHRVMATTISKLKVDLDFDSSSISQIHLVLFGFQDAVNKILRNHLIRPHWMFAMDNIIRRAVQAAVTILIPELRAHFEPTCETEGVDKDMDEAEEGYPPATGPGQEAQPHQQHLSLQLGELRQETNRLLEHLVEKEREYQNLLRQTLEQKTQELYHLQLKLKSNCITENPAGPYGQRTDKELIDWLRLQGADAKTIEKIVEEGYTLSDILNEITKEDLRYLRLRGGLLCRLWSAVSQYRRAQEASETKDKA
# Sequence of Transcription intermediary factor 1-beta (Homo sapiens) (Q13263 whole entry): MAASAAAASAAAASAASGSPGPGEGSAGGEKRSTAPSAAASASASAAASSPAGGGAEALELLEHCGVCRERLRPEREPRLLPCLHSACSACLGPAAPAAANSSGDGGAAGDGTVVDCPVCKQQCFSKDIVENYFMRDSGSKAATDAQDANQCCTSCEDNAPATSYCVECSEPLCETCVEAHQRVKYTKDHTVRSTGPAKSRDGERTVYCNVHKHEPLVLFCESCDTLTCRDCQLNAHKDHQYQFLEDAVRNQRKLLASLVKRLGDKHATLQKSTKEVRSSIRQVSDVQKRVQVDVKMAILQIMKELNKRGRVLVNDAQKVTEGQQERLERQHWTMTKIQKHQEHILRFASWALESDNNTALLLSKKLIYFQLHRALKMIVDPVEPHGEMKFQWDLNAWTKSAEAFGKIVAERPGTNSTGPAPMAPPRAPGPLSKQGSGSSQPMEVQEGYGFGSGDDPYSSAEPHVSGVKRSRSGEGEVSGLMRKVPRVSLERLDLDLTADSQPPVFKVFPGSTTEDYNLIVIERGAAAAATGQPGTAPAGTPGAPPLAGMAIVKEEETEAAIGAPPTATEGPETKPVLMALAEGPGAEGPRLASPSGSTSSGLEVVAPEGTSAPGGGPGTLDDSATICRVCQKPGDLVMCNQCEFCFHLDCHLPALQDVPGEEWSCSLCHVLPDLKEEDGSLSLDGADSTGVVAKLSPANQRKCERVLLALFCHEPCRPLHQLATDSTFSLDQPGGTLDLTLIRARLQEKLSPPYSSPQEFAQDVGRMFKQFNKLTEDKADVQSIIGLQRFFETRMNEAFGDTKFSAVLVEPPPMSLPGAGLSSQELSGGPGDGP
# Sequence of Angiopoietin-1 receptor (Homo sapiens) (Q02763 whole entry): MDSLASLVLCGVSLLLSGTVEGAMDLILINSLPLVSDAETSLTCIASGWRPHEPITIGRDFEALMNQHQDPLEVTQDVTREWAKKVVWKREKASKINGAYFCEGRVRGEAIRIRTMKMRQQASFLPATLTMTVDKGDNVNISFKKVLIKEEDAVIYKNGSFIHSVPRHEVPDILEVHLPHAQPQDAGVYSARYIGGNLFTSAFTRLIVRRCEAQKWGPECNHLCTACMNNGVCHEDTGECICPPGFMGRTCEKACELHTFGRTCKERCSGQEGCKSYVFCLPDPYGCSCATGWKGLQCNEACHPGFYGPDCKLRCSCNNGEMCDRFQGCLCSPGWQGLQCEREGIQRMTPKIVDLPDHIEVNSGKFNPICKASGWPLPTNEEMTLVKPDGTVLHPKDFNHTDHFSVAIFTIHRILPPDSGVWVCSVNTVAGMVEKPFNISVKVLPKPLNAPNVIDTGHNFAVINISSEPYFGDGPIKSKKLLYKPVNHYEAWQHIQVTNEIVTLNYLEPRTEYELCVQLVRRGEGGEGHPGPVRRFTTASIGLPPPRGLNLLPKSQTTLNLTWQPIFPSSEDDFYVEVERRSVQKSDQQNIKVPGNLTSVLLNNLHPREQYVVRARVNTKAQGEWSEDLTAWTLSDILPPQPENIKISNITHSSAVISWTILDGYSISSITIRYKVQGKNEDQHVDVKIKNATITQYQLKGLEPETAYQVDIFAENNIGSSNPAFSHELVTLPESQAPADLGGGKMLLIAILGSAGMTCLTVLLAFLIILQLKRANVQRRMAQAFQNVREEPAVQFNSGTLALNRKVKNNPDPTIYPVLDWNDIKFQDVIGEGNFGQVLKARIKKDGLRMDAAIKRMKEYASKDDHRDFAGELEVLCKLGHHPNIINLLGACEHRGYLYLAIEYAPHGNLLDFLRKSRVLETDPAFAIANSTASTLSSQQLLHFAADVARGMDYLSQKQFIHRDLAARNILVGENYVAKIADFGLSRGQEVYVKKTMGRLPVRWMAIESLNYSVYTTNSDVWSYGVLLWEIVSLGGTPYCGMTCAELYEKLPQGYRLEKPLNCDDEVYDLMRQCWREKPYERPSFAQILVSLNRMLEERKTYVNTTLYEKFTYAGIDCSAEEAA
# Sequence of Mitogen-activated protein kinase kinase kinase kinase 1 (Homo sapiens) (Q92918 whole entry, looked up): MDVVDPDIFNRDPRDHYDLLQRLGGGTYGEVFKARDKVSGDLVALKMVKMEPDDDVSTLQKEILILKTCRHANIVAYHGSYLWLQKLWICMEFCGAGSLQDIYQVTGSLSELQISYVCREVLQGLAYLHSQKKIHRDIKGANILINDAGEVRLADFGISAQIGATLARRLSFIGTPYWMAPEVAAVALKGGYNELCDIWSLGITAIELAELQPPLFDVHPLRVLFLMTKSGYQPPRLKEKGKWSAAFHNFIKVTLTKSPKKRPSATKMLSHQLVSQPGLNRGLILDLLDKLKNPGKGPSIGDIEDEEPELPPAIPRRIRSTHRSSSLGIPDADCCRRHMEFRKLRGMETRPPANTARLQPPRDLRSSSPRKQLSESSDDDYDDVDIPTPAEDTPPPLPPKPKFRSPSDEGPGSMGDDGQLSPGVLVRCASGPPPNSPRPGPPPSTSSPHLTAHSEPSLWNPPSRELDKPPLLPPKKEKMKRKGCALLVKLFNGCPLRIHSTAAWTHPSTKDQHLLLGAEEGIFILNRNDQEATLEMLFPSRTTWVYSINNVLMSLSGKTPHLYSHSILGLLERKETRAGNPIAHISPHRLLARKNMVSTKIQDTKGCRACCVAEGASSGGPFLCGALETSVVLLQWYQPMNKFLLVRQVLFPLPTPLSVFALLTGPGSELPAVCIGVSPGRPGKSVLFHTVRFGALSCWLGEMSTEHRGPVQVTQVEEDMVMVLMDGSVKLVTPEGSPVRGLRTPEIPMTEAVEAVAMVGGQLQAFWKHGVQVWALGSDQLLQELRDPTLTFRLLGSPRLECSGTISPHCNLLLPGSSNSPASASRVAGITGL
# Sequence of Sodium-dependent noradrenaline transporter (P23975 whole entry): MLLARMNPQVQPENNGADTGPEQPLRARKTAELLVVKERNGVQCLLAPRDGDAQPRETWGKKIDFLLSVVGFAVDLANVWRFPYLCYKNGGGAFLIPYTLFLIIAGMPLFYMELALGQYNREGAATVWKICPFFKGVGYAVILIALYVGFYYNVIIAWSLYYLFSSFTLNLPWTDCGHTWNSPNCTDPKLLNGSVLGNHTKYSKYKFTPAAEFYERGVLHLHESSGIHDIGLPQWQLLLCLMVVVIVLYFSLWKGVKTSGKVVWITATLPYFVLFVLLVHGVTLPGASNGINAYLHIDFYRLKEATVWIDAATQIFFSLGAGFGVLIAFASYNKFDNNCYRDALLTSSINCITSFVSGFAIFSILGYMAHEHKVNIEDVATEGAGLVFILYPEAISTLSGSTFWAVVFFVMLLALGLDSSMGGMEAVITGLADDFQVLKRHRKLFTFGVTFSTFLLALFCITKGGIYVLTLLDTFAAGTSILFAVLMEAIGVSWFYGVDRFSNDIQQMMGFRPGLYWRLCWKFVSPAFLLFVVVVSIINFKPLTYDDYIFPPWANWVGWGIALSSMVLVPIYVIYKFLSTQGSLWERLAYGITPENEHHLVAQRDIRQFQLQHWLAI
# Sequence of Mitogen-activated protein kinase 6 (Homo sapiens) (Q16659 whole entry): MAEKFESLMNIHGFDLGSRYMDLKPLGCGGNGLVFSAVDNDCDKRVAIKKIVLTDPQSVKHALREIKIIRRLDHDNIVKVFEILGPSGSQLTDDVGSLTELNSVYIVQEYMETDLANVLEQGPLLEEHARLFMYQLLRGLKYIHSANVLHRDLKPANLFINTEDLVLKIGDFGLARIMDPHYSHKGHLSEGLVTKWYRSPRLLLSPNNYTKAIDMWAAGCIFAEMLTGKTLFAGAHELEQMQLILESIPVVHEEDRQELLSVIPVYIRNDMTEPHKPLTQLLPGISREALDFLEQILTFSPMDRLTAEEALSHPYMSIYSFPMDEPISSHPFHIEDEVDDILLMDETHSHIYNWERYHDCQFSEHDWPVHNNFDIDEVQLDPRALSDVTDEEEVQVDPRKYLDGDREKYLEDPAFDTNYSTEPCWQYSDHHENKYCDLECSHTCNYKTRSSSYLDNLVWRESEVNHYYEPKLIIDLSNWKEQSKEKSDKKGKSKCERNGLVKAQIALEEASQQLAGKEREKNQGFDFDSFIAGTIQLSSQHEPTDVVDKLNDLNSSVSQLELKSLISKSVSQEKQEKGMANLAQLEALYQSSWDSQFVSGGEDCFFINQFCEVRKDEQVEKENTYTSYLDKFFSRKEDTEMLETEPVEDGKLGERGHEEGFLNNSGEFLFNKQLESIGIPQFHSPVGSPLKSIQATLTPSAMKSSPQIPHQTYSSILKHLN
structure (smiles),measurement,setting,value
CN(C)CCCOc1ccc(-c2cc(NCCCn3cccn3)nc(S(C)(=O)=O)n2)cc1,dTM,[1],< 2 K
CNC(=O)Nc1ccc(-c2nc(N3CC4CCC(C3)O4)c3cnn(C4CCC5(CC4)OCCO5)c3n2)cc1,% of control,[2],85%
CC[C@@H]1[C@H](F)C(=O)N[C@@H]1COc1nccc2cc(C(N)=O)c(OC)cc12 [ZIMLOVISERTIB],% of inhibition,[3],5.52%
Cc1cc(C)cc([C@@H]2c3cc(C)ccc3NC(=O)CN2C(=O)c2ccc(Br)s2)c1,% of inhibition,[4],-4%
Cc1cc(F)c(C(=O)Nc2cccc(-c3nncn3C(C)C)n2)cc1-n1cnc(C2CC2)c1,% of control,[5],100%
COCC(=O)NC/C=C/c1ccc2ncnc(Nc3ccc(Oc4ccc(C)nc4)c(C)c3)c2c1 [CP-724714],% of control,[6],91%
COc1cc(Nc2nc(C)cc(-c3cnn4nc(OC)ccc34)n2)cc(C(F)(F)F)c1,% of control,[7],84%
Cc1cc([C@@H](C)Nc2ccccc2C(=O)O)c2nc(N3CCOCC3)cc(=O)n2c1 [AZD-6482],% of control,[8],87%
